Consider one compound from patent US12629364B2, “Methods of treating cancers overexpressing CARM1 with EZH2 inhibitors and platinum-based antineoplastic drugs” (The Wistar Institute of Anatomy and Biology, priority 2016, dated 2026).

In data set [1] the test system is tumors formed by CARM1 knockout A1847 cells. The data set is described as follows: Subcutaneous xenograft, CARM1 knockout A1847 cells. It counts as in vivo, NSG mice. To be noted: 50 mg/kg daily. On the procedure:
(§1) FIGS. 73 to 75 illustrate that EZH2 inhibition suppressed the growth of CARM1-expressing ovarian tumors in vivo. FIG. 73 illustrates images of tumors dissected from control or GSK126 treated mice. CARM1-high A1847 cells were injected subcutaneously into immunocompromised NSG mice (n=5/group). Tumors were allowed to establish for one week before the mice were randomized into two different treatment groups. Mice were treated with vehicle control or GSK126 (50 mg/kg daily) for an additional three weeks. At the end of treatment, the mice were euthanized. Bar=1 cm. FIG. 74 illustrates a difference in tumor size measured as a surrogate for tumor burden from the control and GSK 126 treated mice at the indicated time point. FIG. 75 illustrates a difference in tumor weight measured as a surrogate for tumor burden from control and GSK 126-treated mice. The mice were injected with CARM1 knockout A1847 cells.
(§2) The protocols were approved by the Institutional Animal Care and Use Committee (IACUC). 5×10^6 control A1847 or A1847 CARM1 knockout cells were unilaterally injected subcutaneously into 6-8-week old female immunocompromised NSG mice (n=5 per group). […] Tumor size was measured every 3 days for 3 weeks. At end of the experiments, tumors were surgically dissected and tumor burden was calculated based on tumor weight.

In a further data set the target is T1, EZH2 (Homo sapiens, UniProt Q15910).
T1 construct: endogenous in cells; host or cells: A1847 human epithelial ovarian cancer cells
In words: H3K27Me3 / EZH2 immunoblot in A1847 cells. It counts as cell-based. To be noted: 72 hours, read-out: inhibition of the enzymatic activity of EZH2 as indicated by decrease in H3K27Me3 levels. On the procedure: FIG. 32 illustrates that the EZH2 inhibitor GSK 126 decreases H3K27Me3 levels in a dose-dependent manner. A1847 cells were treated with the indicated concentrations of GSK126 for 72 hours and examined for expression of the indicated proteins by immunoblot. Expression of histone H3 and β-actin was used as a loading control.
Small molecules used in the epigenetic screen were obtained from Structural Genomics Consortium or The Wistar Institute Molecular Screening Facility. GSK126 was obtained from Active Biochem or Xcess Biosciences. Antibodies were obtained from: mouse anti-CARM1 (Cell Signaling, Cat. No: 12495, 1:1000 for immunoblotting), goat anti-BAF155 (Santa Cruz, Cat. No: SC9746, 1:1000 for immunoblotting), rabbit anti-methylated R1064 BAF155 (Millipore, Cat. No: ABE1339, 1:1000 for immunoblotting), rabbit anti-EZH2 (Cell Signaling, Cat. No: 5246, 1:1000 for immunoblotting), rabbit anti-cleaved PARP p85 (Promega, Cat. No: G7341, 1:1000 for immunoblotting), mouse anti-Ki67 (Cell Signaling, Cat. No: 9449, 1:500 for IHC), rabbit anti-cleaved caspase 3 (Cell Signaling, Cat. No: 9661, 1:1000 for immunoblotting and 1:50 for IHC), rabbit anti-H3K27Me3 (Cell Signaling, Cat. No: 9733, 1:1000 for immunoblotting and 1:100 for IHC), mouse anti-β-actin (Sigma, Cat. No: A1978, 1:20,000 for immunoblotting), rabbit anti-RNA pol II (Santa Cruz, Cat. No: sc-899). […]

Data set [2] has as its system A1847 parental and CARM1 knockout cells. In words: Epigenetic targeting small molecule set screen (14-day colony formation). It counts as cell-based, Human. The note with it: A1847 parental vs CARM1 knockout; 14 days; normalized to vehicle. On the procedure: FIG. 26 illustrates that CARM1-expressing cells are selectively sensitized to EZH2 inhibitors. Equal number of parental control or CARM1 knockout […] cells were plated and treated with each of the 23 individual epigenetic inhibitors for 14 days. The media with the inhibitors was refreshed every 3 days. Cell growth was quantified as integrated density using NIH Image J software. Quantification of the average integrated density graphed as a scatter plot. The X-axis indicates the relative growth of treated CARM1 high parental […] cells compared with DMSO vehicle controls. Y-axis indicates the relative growth of treated CARM1 knockout […] cells compared with DMSO vehicle controls. n=4; and error bars represents SEM. FIG. 27 illustrates a table of EZH2 inhibitors that are selective against CARM1 expression. CARM1-high parental controls and CARM1 knockout […] cells were treated with the indicated concentration of the small molecules in a 14-day colony formation assay. Integrated density for each well was calculated using NIH Image J software. The relative growth of the indicated cells was determined by normalizing to the vehicle control treated cells. n=4 and p-value was calculated using a two-tailed t-test. FIG. 28 illustrates representative images of colonies formed by the cells treated with the indicated inhibitors. GSK126 and UNC1999 representative positive hits from the screen. […] parental and CARM1 knockout cells were plated in 24-well plates and treated with 24 epigenetic compounds. Cell medium was changed every three days with appropriate drug doses for 14 days or until control wells became confluent. Colonies were washed twice with PBS and fixed with 10% methanol and 10% acetic acid in distilled water. Fixed colonies were stained with 0.005% crystal violet. Integrated density was measured using NIH ImageJ software as a surrogate for cell growth.

Data set [3] has as its system CARM1-expressing A1847 tumors. The data set is described as follows: Subcutaneous xenograft, CARM1-expressing A1847 cells. It counts as in vivo, NSG mice. To be noted: 50 mg/kg daily i.p., three weeks. On the procedure: as §1, §2
Data set [4] relates to parental and CARM1 knockout A1847 cells, OVCAR10 cells. The data set is described as follows: Apoptosis markers (Annexin V, cleaved caspase 3, cleaved PARP). It counts as cell-based, Human. To be noted: 10 μM; 7 days; CARM1-dependent manner. On the procedure: FIG. 37 illustrates control parental and CARM1 knockout A1847 cells were treated with 10 μM GSK126 or vehicle for 7 days. Percentage of Annexin V positive apoptotic cells was quantified. *p<0.001 and #p>0.05.
FIG. 38 illustrates levels of cleaved caspase 3 and cleaved PARP in control parental and CARM1 knockout A1847 cells treated with 10 μM GSK126 for 7 days. Expression of β-actin was used as a loading control.
FIG. 39A illustrates the expression of apoptosis markers cleaved in CARM1 high OVCAR10 cells as a result of treatment with GSK126. CARM1 high OVCAR10 cells were treated with 10 μM GSK 126 or vehicle control for 7 days. The expression of apoptosis markers cleaved caspase 3 and cleaved PARP were determined by immunoblot. Expression of β-actin was used as a loading control.
Phosphatidylserine externalization was detected using an Annexin V staining kit (Millipore) following the manufacturer's instructions. Annexin V-positive cells were detected using the Guava System and analyzed with the Guava Nexin software Module (Millipore).

The conditions of data set [5]: clinical trials for hematopoietic malignancies; cited from earlier work.

“Also recorded” adds a separate entry of the source.

T1 sequence (Q15910 whole entry): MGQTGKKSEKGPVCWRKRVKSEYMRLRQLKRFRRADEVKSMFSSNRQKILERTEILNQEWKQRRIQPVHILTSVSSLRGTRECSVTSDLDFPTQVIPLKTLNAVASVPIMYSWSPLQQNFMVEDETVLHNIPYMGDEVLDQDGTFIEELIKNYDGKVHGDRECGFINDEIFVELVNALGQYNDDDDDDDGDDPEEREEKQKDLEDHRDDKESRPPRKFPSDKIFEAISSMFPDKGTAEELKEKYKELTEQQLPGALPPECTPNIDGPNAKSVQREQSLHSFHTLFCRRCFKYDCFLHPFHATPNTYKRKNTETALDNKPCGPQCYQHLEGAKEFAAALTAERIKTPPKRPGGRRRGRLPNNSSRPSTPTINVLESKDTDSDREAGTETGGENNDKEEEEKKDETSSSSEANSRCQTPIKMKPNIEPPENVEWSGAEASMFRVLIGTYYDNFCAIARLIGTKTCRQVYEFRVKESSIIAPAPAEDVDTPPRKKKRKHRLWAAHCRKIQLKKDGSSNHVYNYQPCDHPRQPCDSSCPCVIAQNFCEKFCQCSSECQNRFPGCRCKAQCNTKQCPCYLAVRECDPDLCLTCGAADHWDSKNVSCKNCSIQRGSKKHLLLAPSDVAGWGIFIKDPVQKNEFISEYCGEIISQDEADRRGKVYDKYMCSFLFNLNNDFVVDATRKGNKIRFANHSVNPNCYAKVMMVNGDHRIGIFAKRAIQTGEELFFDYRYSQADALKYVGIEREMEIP
T1 sequence (Q15022 whole entry partner): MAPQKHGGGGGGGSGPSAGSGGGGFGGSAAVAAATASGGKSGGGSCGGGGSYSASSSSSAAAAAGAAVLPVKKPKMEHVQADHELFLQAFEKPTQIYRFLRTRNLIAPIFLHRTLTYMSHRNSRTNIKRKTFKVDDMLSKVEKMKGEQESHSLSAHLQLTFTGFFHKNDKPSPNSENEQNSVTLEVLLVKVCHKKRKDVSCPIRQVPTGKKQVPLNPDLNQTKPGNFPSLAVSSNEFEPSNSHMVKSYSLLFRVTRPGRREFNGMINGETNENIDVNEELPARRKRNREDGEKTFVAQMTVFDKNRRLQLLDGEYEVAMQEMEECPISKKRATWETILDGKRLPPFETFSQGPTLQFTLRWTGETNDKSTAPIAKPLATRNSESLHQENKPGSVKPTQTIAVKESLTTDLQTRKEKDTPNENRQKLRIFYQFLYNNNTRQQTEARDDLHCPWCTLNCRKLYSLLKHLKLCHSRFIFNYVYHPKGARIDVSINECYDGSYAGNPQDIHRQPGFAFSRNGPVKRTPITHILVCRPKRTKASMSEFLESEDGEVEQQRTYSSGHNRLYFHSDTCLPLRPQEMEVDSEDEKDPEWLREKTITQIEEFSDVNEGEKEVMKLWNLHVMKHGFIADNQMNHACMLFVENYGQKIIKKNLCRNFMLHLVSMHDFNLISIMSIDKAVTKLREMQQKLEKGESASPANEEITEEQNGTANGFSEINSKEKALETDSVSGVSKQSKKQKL
T1 sequence (O75530 whole entry partner): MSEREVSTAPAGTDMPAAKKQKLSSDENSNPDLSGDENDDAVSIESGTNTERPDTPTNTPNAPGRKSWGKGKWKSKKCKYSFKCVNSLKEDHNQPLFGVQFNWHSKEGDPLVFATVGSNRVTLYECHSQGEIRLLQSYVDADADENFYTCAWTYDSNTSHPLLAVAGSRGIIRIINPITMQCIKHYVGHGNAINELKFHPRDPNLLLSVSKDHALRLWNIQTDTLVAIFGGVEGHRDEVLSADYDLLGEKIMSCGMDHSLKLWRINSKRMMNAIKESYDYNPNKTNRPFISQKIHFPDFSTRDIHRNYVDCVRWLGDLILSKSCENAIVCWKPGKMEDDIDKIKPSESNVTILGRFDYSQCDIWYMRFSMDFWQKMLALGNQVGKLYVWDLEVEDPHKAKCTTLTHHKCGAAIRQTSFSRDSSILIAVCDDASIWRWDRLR

Consider `CC[C@H](C)n1cc(C)c2c(C(=O)NCc3c(C)cc(C)[nH]c3=O)cc(-c3ccc(N4CCNCC4)nc3)cc21` [GSK126, (S)-1-(sec-butyl)-N-((4,6-dimethyl-2-oxo-1,2-dihydropyridin-3-yl)methyl)-3-methyl-6-(6-(piperazin-1-yl)pyridin-3-yl)-1H-indole-4-carboxamide], for which the tumor growth entry in data set [1] is “failed to inhibit the growth”; in data set [3] it was “significantly inhibited the growth of CARM1-expressing tumors”. The inhibition at 10 µM on EZH2 is greater than 95%. In addition, in data set [2], the “selective growth suppression of CARM1-expressing versus CARM1 KO cells” value is listed as “showed selectivity against CARM1-expressing cells”. Moreover, the markers of apoptosis entry in data set [4] is listed as “markers of apoptosis were induced”. The “tolerability in clinical trials” value in data set [5] is “used safely in clinical trials; also recorded: well-tolerated with limited toxicity”.

As usually defined, the inhibition is the drop in the measured response relative to a control, in per cent.
